Test results taken from US5863935A, “Therapeutic heterocyclic compounds” (Zeneca Limited, priority 1990, dated 1999).

Columns and labels:
"5-HT1 -like" receptor = "5-HT1 -like" receptor (Oryctolagus cuniculus, UniProt P49144); assay: Agonist activity, contraction of rabbit lateral saphenous vein rings
Beagle dogs = assay: 14-day oral toxicity in Beagle dogs; assay type: in vivo, dog; details: hydrochloride salt, oral gavage, Beagle dogs, 0.25, 0.50, 1.0 and 2.0 mg/kg base once a day for 14 days
Protocol: (§1) The hydrochloride salt of the compound of Synthetic Examples 2/3 was administered orally by gavage to Wistar rats as a solution in distilled water at dosages of 25, 100 and 200 mg/kg base and to Beagle dogs at dosages of 0.25, 0.50, 1.0 and 2.0 mg/kg base once a dav for 14 days. In a separate dog study over 30 days, the dosage of the free base was increased from 2 mg/kg on Day 1 to 100 mg/kg on Day 30. The free base was also administered orally to cynomolgus monkeys at a dosage of 50 mg/kg once a day for 15 days.

dog = assay: 30-day escalating-dose toxicity study in dogs; assay type: in vivo; details: free base, 30 days, dosage increased from 2 mg/kg on Day 1 to 100 mg/kg on Day 30
Protocol: as §1

cynomolgus monkeys = details: cynomolgus monkey, in vivo, po, 50 mg/kg
Protocol: as §1

Chain of "5-HT1 -like" receptor (P49144 whole entry): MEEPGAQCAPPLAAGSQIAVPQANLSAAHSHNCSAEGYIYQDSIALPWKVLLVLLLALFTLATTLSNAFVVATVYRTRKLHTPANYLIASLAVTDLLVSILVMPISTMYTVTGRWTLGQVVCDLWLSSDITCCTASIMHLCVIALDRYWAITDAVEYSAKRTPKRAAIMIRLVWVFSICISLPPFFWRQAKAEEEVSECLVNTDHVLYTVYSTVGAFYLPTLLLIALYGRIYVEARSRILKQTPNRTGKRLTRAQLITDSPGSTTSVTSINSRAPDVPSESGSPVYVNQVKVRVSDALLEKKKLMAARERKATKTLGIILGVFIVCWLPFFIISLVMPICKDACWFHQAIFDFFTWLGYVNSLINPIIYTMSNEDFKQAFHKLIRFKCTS

CN1CCC(c2c[nH]c3ccc(CC4COC(=O)N4)cc23)CC1 (racemic) [4/5, (±)-3-(1-methyl-4-piperidyl)-5-(2-oxo-1,3-oxazolidin-4-yl-methyl)-1H-indole]
EC50 ("5-HT1 -like" receptor): 501 nM

CN(C)CCc1c[nH]c2ccc(C[C@H]3COC(=O)N3)cc12 [2/3, (S)-N,N-dimethyl-2-[5-(2-oxo-1,3-oxazolidin-4-ylmethyl)-1H-indol-3-yl]ethylamine 0.9 isopropanolate 0.5 hydrate]
Toxicity (Beagle dogs): No evidence of toxicity | Toxicity (dog): No evidence of toxicity | Toxicity (cynomolgus monkeys): No evidence of toxicity | EC50 ("5-HT1 -like" receptor): 100 nM
